Results as given in patent publication US8916679B2, “Peptides binding to the dimer interface of thymidylate synthase for the treatment of cancer” (Universita′ degli Studi di Modena e Reggio Emilia, priority 2009, dated 2014).
Where no end group is shown, it is not given here.

Experiments:
[1] = target: T1, hTS enzyme (human Thymidylate synthase) (Homo sapiens, UniProt P04818); test: Peptidic inhibitor Ki value determination vs dUMP and vs mTHF; type: biochemical; conditions: Lineweaver-Burk analysis, FIG. 4
T1 construct: made in house; host or cells: E. coli (printed as 'BL21 strain DH5α'), vector pQE80L
T1 sequence (P04818 with tags, fused parts or gaps): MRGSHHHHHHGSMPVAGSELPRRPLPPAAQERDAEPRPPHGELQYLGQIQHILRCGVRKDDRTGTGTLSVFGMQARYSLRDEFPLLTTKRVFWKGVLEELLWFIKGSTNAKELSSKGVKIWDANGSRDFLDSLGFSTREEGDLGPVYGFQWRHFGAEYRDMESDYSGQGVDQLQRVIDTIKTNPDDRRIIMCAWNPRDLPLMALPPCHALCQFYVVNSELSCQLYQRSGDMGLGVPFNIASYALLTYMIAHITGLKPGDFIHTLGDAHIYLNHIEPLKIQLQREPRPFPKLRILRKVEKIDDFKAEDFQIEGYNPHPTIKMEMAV

A2780 cells = test: Cell growth assay (crystal violet dye); type: cell-based, human; conditions: 10 μM, FIG. 7
Description: Cultures were equilibrated with humidified 5% CO2 in air at 37° C.
Cells were seeded into 24-well plates and allowed to attach overnight. Peptides were delivered into cells by means of a peptide delivery system, following the procedures indicated by the manufacturer. On selected days, after removal of the tissue culture medium, cell growth was determined by a modification of the crystal violet dye assay. The extracted dye was proportional to cell number.

| type of inhibition (kinetic data) [1] | Sequence | relative activity against A2780 cells (A2780 cells) |
| --- | --- | --- |
| competitive inhibition pattern | DFIHTLGD [SEQ ID NO: 1] |  |
|  | YVVNSELS [SEQ ID NO: 44] | particularly active |
